In US20180193365A1, “USE OF HYDROGEN SULFIDE TO PREVENT LENS OPACIFICATION” (Creighton University, priority 2017, published 2018):
“Also recorded” adds a separate entry of the source.

What was measured:
cultured bovine lenses [1] = test: H2O2-induced lens degradation/opacification in cultured bovine lenses (light transmittance, photographs); format: cell-based
glutathione (GSH) = conditions: 50 mM; 120 hours
cultured bovine lenses [2] = test: Lens degradation/opacification of DMEM-cultured bovine lenses (light transmittance, photographs); format: cell-based; conditions: 120 hours; for attenuation of light transmittance compared to untreated DMEM lenses (time=0 hours): 420 nm

| SMILES | decrease of light transmittance compared to DMEM-cultured lenses (time=0 hour) (cultured bovine lenses [1]; 50 mM, after 120 hours) [%] | attenuation of GSH content compared to untreated lenses (time=0 hours) (glutathione (GSH)) [%] | attenuation of light transmittance compared to untreated DMEM lenses (time=0 hours) (cultured bovine lenses [2]; 3 mM) [%] | attenuation of light transmittance compared to untreated DMEM lenses (time=0 hours) (cultured bovine lenses [2]; 10 mM) [%] | qualitative assessment of lens opacity (photographs against grid) (cultured bovine lenses [2]; 10 mM) | attenuation of H2O2-induced inhibition of light transmittance (cultured bovine lenses [1]; 3 mM, H2O2 50 mM, 120 hours) [%] | qualitative assessment of H2O2-induced lens opacity (photographs against grid) (cultured bovine lenses [1]; 3 mM, H2O2 50 mM, 120 hours) | protection from peroxide-induced lens degradation (cultured bovine lenses [1]; 10 mM, H2O2 50 mM, 120 hours) |
| --- | --- | --- | --- | --- | --- | --- | --- | --- |
| OO [H2O2, hydrogen peroxide] | 36.76 | 82.56 | – | – | – | – | – | – |
| O=C1O[C@H]([C@@H](O)CO)C(O)=C1O [ascorbic acid] | – | – | 60.57 | 57.42 | accelerated the degradation process; also recorded: accelerated lens degradation; also recorded: accelerated clouding of the lens | 9.22 | protected lenses from peroxide-induced degradation | failed to protect |
